According to patent US8748445B2, “Methods for treating glioma” (The UAB Research Foundation, priority 2004, dated 2014):

What was measured:
[1] = tested on: glioma xenograft tumors; assay: tumor size by hematoxylin-eosin staining of brain sections; type: in vivo, mice; conditions: 8 mg in 1 ml saline twice per day; 30 days after tumor induction (FIGS. 7C, 7D)
Method: To validate that these experiments represent, at least qualitatively, changes in tumor size, two animals each from the control and treatment groups were sacrificed at 30 days after tumor induction. Histological sections were obtained and traditional hematoxylin-eosin (H&E) staining were performed. FIGS. 7C and 7D show the results for the control group (saline treatment only) and the treatment group (8 mg sulfasalazine in 1 ml saline, twice per day).

[2] = tested on: glioma cell lines (D-54MG, U-87MG, U-251MG and STTG1) and a primary glioma culture (GBM62); assay: growth curves of glioma cells over 5 days; type: cell-based, human; conditions: 5 days; 0.1 and 0.25 mM (S)-4-CPG, 0.25 and 0.5 mM sulfasalazine; all glioma cell lines and GBM62 (FIGS. 3A, 3B)
Method: To examine whether the depletion of glutathione via inhibition of cystine uptake by system Xc affects the growth of glioma cells, growth curves for 4 glioma cell lines (D-54MG, U-87MG, U-251MG and STTG1) and a primary glioma culture (GBM62) were established.
In the presence of 0.25 mM (S)-4-CPG, growth of D-54MG cells indeed recovered by the addition of fourfold excess of cystine (FIG. 3E), but not with glutamate (FIG. 3D), the second substrate for system Xc.

[3] = tested on: U87-MG; assay: intracranial U87-MG luciferase xenograft, bioluminescence imaging; type: in vivo, CB-17 nude mice; conditions: 8 mg twice daily for 3 weeks, then 1 dose per day (FIG. 7B)
Method: These U87-MG cells were similarly implanted intracranially as described above, but this time into CB-17 nude mice. After 7 days, animals were randomized into […]. The control group received an intraperitoneal injection of 1 ml dose of saline twice daily. The two test groups received an 8 mg dose of sulfasalazine (in 1 ml saline) twice daily for 3 weeks, followed by 1 dose per day of 8 mg sulfasalazine thereafter. Animals were imaged for tumor size, typically once per week, using a bioluminescence imaging system (IVIS system; Xenogen). Light emission from the tumor regions (in relative photons/second) were quantified using Living Image, version 2.20.1, software provided by Xenogen and plotted as a function of time.

[4] = tested on: D-54MG glioma cells; assay: BrdU incorporation, immunocytochemical studies; type: cell-based, human; conditions: DAPI co-staining (FIG. 4B)
Method: BrdU incorporation was measured using an ELISA-based assay. D-54MG cells were grown in the presence or absence of inhibitors for 24 hours and pulsed for 2 hours with BrdU. The cells were cultured for an additional 48 hours and the amount of incorporated BrdU was measured using alkaline phosphatase conjugated to anti-BrdU antibodies. […] The inhibition of DNA synthesis was also seen in immunocytochemical studies.

[5] = tested on: primary astrocyte cultures; assay: growth of primary astrocyte cultures; type: cell-based; conditions: (S)-4-CPG 0.25 mM and 0.5 mM (FIG. 3C); sulfasalazine data not shown
[6] = tested on: cultured glioma cells; assay: glutathione levels in cultured glioma cells (monochlorobimane assay); type: cell-based, human
Method: The control group and treatment group animals were those described in FIG. 7A above. For these experiments, four mice (two control and two treatment) were sacrificed at 44 days after tumor induction, and brains were rapidly frozen and cryosectioned to […], thawed on ice, and then incubated with 100 μM monochlorobimane for 10 min. Fluorescence intensities were examined using a quantitative fluorescence imaging system comparing side-by-side slices from control group and treatment group animals. In these experiments, 10 slices were examined per animal. […] After treatment with 8 mg sulfasalazine 2 times per day, glutathione levels decreased approximately 30% (from 100+/−5.6 to 71.7+/−7.5 fluorescence units; p 0.01; t test) in tumors as compared with control animals (receiving saline alone). In parallel studies, the same assay was used on cultured glioma cells to validate these readouts. A 30% decrease in glutathione levels correlates with the glutathione depletion achieved with 70 μM sulfasalazine administered for 24 h to cultured cells; the maximal decrease achieved with 250 μM sulfasalazine in cultured U87-MG cells was 68% (data not shown).

[7] = tested on: cortical astrocytes; assay: intracellular glutathione in cortical astrocytes; type: cell-based; conditions: sulfasalazine 50-500 μM; compared to glioma cells (FIG. 2E)
Method: (§1) To determine if limiting cystine uptake via system Xc reduces the total intracellular glutathione content (GSH and glutathione disulfide), intracellular glutathione concentrations were determined in the presence and absence of sulfasalazine.

[8] = tested on: glioma cells; assay: cell death by flow cytometry using the Live/Dead assay kit; type: cell-based, human; conditions: 1 mM, 5 d incubation (FIG. 5E)
Method: Because an accumulation of ROS can lead to apoptotic cell death, the ability of system Xc inhibitors to induce apoptosis in glioma cells was examined. […] Often apoptosis is dependent on caspase activities, so it was determined whether the system Xc inhibitors induce activated caspase-3, which is the convergent enzyme in the caspase-dependent signaling cascade. […] With 1 mM sulfasalazine, 90% of cells died over the 5 d incubation (FIG. 5E).

[9] = tested on: glioma cells; assay: total intracellular glutathione content in glioma cells; type: cell-based, human
Method: as §1

[10] = tested on: D54-MG glioma cells; assay: intracranial D54-MG luciferase xenograft, bioluminescence imaging; type: in vivo, CB-17 scid mice
Method: Therefore, the effect of inhibiting system Xc in an animal model of malignant glioma was examined. In these experiments, both (S)-4-CPG or sulfasalazine were used. […] In the described in vivo experiments, human gliomas were xenografted into the cranium of either female CB-17 scid mice or nude mice, both of which are frequently used animal models for malignant gliomas. The intracranial growth of tumors was assessed using the recently developed […] methodology for visualizing tumor growth.
In one set of in vivo experiments, D54-MG glioma cells were stably transfected with the firefly luciferase gene under the control of the CMV promoter. One-half million cells were stereotactically implanted into the cranium of each CB-17 scid mouse. After 7 days, animals were randomized into three groups of 12 animals each. The control group received an intraperitoneal injection of 1 ml dose of saline twice daily. The two test groups received an 8 mg dose of sulfasalazine twice daily for either 1 or 3 weeks. Animals were imaged for tumor size, typically once per week, using a bioluminescence imaging system (IVIS system; Xenogen). Light emission from the tumor regions (in relative photons/second) were quantified using Living Image, version 2.20.1, software provided by Xenogen and plotted as a function of time.

[11] = tested on: glioma cells; assay: cell cycle: total DNA content by flow cytometry (propidium iodide); type: cell-based, human; conditions: 0.5 mM (FIG. 4D)
Method: To test whether inhibition of cystine uptake affects a specific stage of the cell cycle, changes in total DNA content were measured using flow cytometry following treatment with 0.5 mM (S)-4-CPG and 0.5 mM sulfasalazine. Cells were fixed with para-formaldehyde and stained with the nuclear marker propidium iodide after incubation with drugs.

O=C(O)c1cc(/N=N/c2ccc(S(=O)(=O)Nc3ccccn3)cc2)ccc1O [sulfasalazine]
tumor size versus control group, H&E staining [1]: significantly smaller | growth of glioma cells [2]: dose-dependent growth inhibitions | tumor growth by bioluminescence imaging [3]: reduce tumor growth significantly | incorporation of BrdU, immunocytochemistry [4]: virtually abolished incorporation of BrdU | growth of primary astrocyte cultures [5]: Neither (S)-4-CPG (FIG. 3C) nor sulfasalazine (data not shown) affected | decrease in glutathione levels in cultured cells ([6]; 70 μM for 24 h): 30% | maximal decrease in glutathione levels ([6]; 250 μM, cultured U87-MG cells, data not shown): 68% | intracellular glutathione concentration in astrocytes [7]: a smaller effect | cells died [8]: 90% | intracellular glutathione concentration ([9]; 0.25 mM, glioma cells D-54MG, U-87MG, U-251MG and primary glioma culture GBM64 (FIG. 2F)): depleted intracellular glutathione concentration | intracellular glutathione concentration ([9]; D-54MG glioma cells, sulfasalazine 50-500 μM, time and dose-dependent, after 24 h (FIG. 2D)): almost complete glutathione depletion | tumor expansion (relative bioluminescence) ([10]; 8 mg intraperitoneal twice daily for either 1 or 3 weeks, from day 7 (FIG. 7A)): significantly reduced | tumor growth after retreatment ([10]; retreated at day 53 for 3 days after termination of treatment (FIG. 7A)): again reduced after retreatment | cell cycle distribution (total DNA content) [11]: a reduction of cells in G2 phase and an increase in cells in S phase
